In PubChem BioAssay (NCI):
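Following 48 hours of exposure in 96-well plates, responses at five concentrations were used to interpolate endpoints linearly. Abbreviation: GI50, concentration required for 50% inhibition of growth. TGI: total growth inhibition.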

How the values were obtained:
Assay in all cases: growth of human tumour cells (NCI), 48 h
[1] = tested on: CCRF-CEM leukemia
[2] = tested on: SN12C renal
[3] = tested on: MALME-3M melanoma
[4] = tested on: HT29 colon
[5] = tested on: K-562 leukemia
[6] = tested on: COLO 205 colon
[7] = tested on: NCI-H522 lung
[8] = tested on: HCT-15 colon
[9] = tested on: BT-549 breast
[10] = tested on: TK-10 renal

Row | SMILES | GI50 [1] [µM] | TGI [1] [µM] | GI50 [2] [µM] | TGI [2] [µM] | GI50 [3] [µM] | TGI [3] [µM] | GI50 [4] [µM] | TGI [4] [µM] | GI50 [5] [µM] | TGI [5] [µM] | GI50 [6] [µM] | TGI [6] [µM] | GI50 [7] [µM] | TGI [7] [µM] | GI50 [8] [µM] | TGI [8] [µM] | GI50 [9] [µM] | TGI [9] [µM] | GI50 [10] [µM] | TGI [10] [µM]
1 | Cc1cccc2c(=O)c3c(sc12)c(NCCN)nc1ccccc13 | 0.878 | 1.83 | 0.754 | 1.54 | 0.841 | 1.59 | 0.819 | 1.61 | 0.827 | 1.95 | 0.826 | 1.65 | 0.863 | 1.75 | 0.821 | 1.58 | 1.33 | 4.07 | 1.15 | 1.97
2 | Cc1cc(NC(=O)C(=O)Cc2nc3ccccc3s2)ccc1Cl | – | > 100 | – | > 100 | – | > 100 | – | > 100 | – | > 100 | – | > 100 | – | > 100 | – | > 100 | – | > 100 | – | > 100
3 | N=C1N=Nc2nc(C3(c4nc5n(c4O)C(=N)N=N5)Cc4ccccc4C3=O)c(O)n21 (stereo unspecified) | – | > 100 | – | > 100 | – | > 100 | – | > 100 | – | > 100 | – | > 100 | 87.5 | > 100 | – | > 100 | > 100 | > 100 | – | > 100
4 | COc1ccc(-c2oncc2-c2cc(OC)c3c(c2)OCO3)cc1 | 2.2 | > 43.6 | 5.23 | > 100 | > 100 | > 100 | 1.69 | 13.7 | 0.441 | > 100 | 2.8 | 10.4 | 1.44 | 5.77 | 1.2 | > 100 | 5.24 | > 100 | 7.3 | > 100
5 | NS(=O)(=O)c1ccc(NCc2cnc3ccccc3c2)cc1 | – | – | – | > 100 | – | > 100 | – | > 100 | – | > 100 | – | > 100 | – | > 100 | – | > 100 | – | > 100 | – | > 100
6 | COC(=O)/C(Br)=C/c1c[nH]c2ccc(Br)cc12 | 4.87 | 22.8 | 18.4 | 43.3 | 14.5 | 28.3 | 11 | 24.8 | > 100 | > 100 | 12.5 | 25.1 | 10.2 | 32.1 | 6.26 | 21.4 | 11.2 | 23.6 | 19 | 49.4
7 | O=C(CN/C=C\C(=O)c1cc(Cl)ccc1Cl)c1ccccc1 | 18.5 | 36.7 | 25.9 | 57.1 | 25.1 | 78.3 | 31.6 | > 100 | 61.2 | > 100 | 34.9 | > 100 | 17.4 | 34.8 | 18.3 | 37.6 | 27.4 | 74.7 | 26 | 73.7
8 | Clc1cccc(Cc2cn3cc(-c4ccccc4)nc3s2)c1 | 43 | > 100 | 7.41 | > 100 | 21.4 | > 100 | 11.8 | > 100 | 0.591 | > 100 | – | – | – | – | – | – | 28.8 | > 100 | 22 | > 100
9 | O=S(=O)(c1ccccc1)C1CN(Cc2ccccc2)CCN(Cc2ccccc2)C1 | – | > 100 | – | > 100 | – | > 86.3 | – | > 100 | – | > 100 | – | > 100 | – | 34.1 | – | > 100 | – | > 100 | – | > 100
10 | CN(C)CCOc1cccc(NC2=C(Cl)C(=O)C(Nc3cccc(OCCN(C)C)c3)=C(Cl)C2=O)c1 | 0.256 | 0.932 | 0.427 | 0.886 | 0.275 | 0.827 | 0.258 | 0.666 | 0.162 | 0.608 | 0.258 | 0.684 | 0.194 | 0.46 | 0.35 | 1.4 | 1.72 | 3.12 | 0.234 | 0.513
11 | COc1cc2c(cc1C)NC(=O)/C2=C/c1c(C)nc2sc(C)cn12 | 53.4 | > 100 | 74.5 | > 100 | 60.1 | > 100 | > 100 | > 100 | 35.3 | > 100 | 73.6 | > 100 | 52.5 | > 100 | > 100 | > 100 | 40.4 | > 100 | 68 | > 100
12 | OCCCNC(=S)Nc1ccc(-c2nc3ccccc3s2)cc1 | 16.9 | > 100 | 22.8 | 54.8 | 19.3 | 52.7 | 32.2 | > 100 | 29.7 | > 100 | 30 | > 100 | 12.6 | 38.7 | 16.7 | 39.8 | 25 | 82.9 | 19.3 | 55.8
13 | CCN1CCN(Cc2ccc3cc(C(=O)Nc4cc(NC(=O)c5ccc6c(c5)OCCO6)ccc4F)ccc3n2)CC1 | 0.118 | 2.54 | 0.0524 | 1.82 | 0.0394 | 0.42 | 0.0528 | 11.9 | 0.0505 | 14.5 | 0.0553 | 1.51 | 0.0351 | 0.427 | 0.0376 | 2.25 | 0.146 | 7.82 | 0.0429 | 4.29
14 | Cn1cc(C2=C(c3cccc(NCC(O)CO)c3)C(=O)NC2=O)c2cc(Cl)ccc21 (stereo unspecified) | 3.92 | > 21.8 | 4.62 | 16.5 | 7.84 | 14.8 | 2.78 | 11.8 | 2.19 | > 25 | 2.74 | 6.17 | 2.45 | 11.4 | 5.97 | > 25 | 3.82 | 9.3 | 5.67 | 16.8
15 | COC(C(=O)[C@@H](O)[C@@H](C)O)[C@@H]1Cc2cc3cc(O[C@H]4C[C@@H](O[C@H]5C[C@@H](O)[C@H](O)C(C)O5)[C@H](O)C(C)O4)c(C)c(O)c3c(O)c2C(=O)[C@H]1O[C@H]1C[C@@H](O[C@H]2C[C@@H](O[C@H]3C[C@@H](O)[C@@H](O)C(C)O3)[C@@H](O)C(C)O2)[C@H](O)C(C)O1 (stereo partly specified) | 1.84 | > 32.5 | 0.265 | > 32.5 | 0.114 | 2.41 | 0.368 | > 32.5 | 0.312 | > 32.5 | – | – | 0.058 | 1.62 | 6.59 | > 32.5 | 0.149 | 4.42 | 0.873 | > 32.5
16 | COc1ccc2cc(C(=O)/C=C/c3ccccc3OC)ccc2c1 | 1.16 | 7.52 | 1.97 | 6.82 | 8.32 | 67.2 | 1.67 | > 45.5 | 0.669 | – | 3.56 | 49.4 | 1.93 | 9.67 | 1.67 | 14.3 | 4.55 | 24.6 | 2.89 | > 40.1
17 | CSc1ccc2c(c1)C(=O)c1c-2n(CCCN=[N+]=[N-])c(=O)c2cc([N+](=O)[O-])ccc12 | 0.239 | 10.9 | 1.63 | > 100 | – | > 38.9 | 4.3 | > 100 | 1.99 | > 40.2 | > 23.7 | > 100 | 6.01 | > 100 | > 87.1 | > 100 | – | > 100 | > 100 | > 100
18 | COc1ccc2c(c1)N(CCO)C1=C(C(=O)OC1)C2c1cccc(Br)c1 (stereo unspecified) | 0.217 | > 100 | 0.45 | > 88.1 | 0.0536 | 85.7 | 0.0429 | 0.387 | 0.0532 | > 67.6 | 0.103 | 0.464 | 0.0226 | 0.0693 | 0.0659 | > 100 | 0.305 | 34 | 0.349 | 83.6
19 | COc1cc2c3c(n(CCCN4CCOCC4)c(=O)c2cc1OC)-c1cc2c(cc1C3=O)OCO2 | 0.0934 | 3.34 | 0.821 | > 100 | 6.6 | 84.5 | 5.62 | > 67 | 4.54 | > 100 | 40.4 | > 100 | 3.97 | > 100 | 17.4 | > 100 | 12.6 | > 100 | 34.6 | > 94.3
20 | CNC(=S)N/N=C(/C)CCC/C(C)=N/NC(=S)NC | – | – | – | > 100 | – | > 100 | – | > 100 | – | > 100 | – | > 100 | – | > 100 | – | > 100 | – | > 100 | – | > 100
21 | COc1ccc2c(c1)c(=O)oc1cc(OC/C(=N\O)c3ccc(F)cc3)ccc12 | 7.07 | > 100 | 16.9 | 34.3 | 16.3 | 44.2 | 15.5 | 36.6 | 25.6 | > 100 | 15.6 | 34.6 | 14.9 | 37.8 | 20.5 | 61.2 | 18.8 | 44.2 | 17.5 | 52.8
22 | O=C(Nc1cccc2ccccc12)c1cc2ccccc2cc1O | 2.91 | 12.1 | 2.4 | 9.97 | 0.562 | 3.9 | 3.55 | 12.4 | 1.95 | 23.4 | 9.76 | 23.7 | 1.66 | 4.83 | 3.03 | 11.6 | 3.6 | 16.4 | 2.8 | 6.72
23 | Cc1ccc(S(=O)(=O)N2C/C(=C\c3cc(F)cc(F)c3)C(=O)/C(=C/c3cc(F)cc(F)c3)C2)cc1 | 0.0748 | 0.951 | 0.272 | 0.861 | 0.256 | 0.647 | 0.215 | 0.544 | 0.0605 | 1.24 | 0.653 | 2.33 | 0.26 | 0.721 | 0.22 | 0.966 | 0.286 | 0.709 | 0.994 | 2.99
24 | COc1ccc(/C=C/C(=O)c2ccc(NC(=O)CSc3nnc(-c4cc(OC)c(OC)c(OC)c4)o3)cc2)cc1 | 1.84 | 4.56 | 1.83 | 3.57 | 1.68 | 3.45 | 1.83 | 3.62 | – | – | 1.94 | 3.84 | 1.55 | 3.22 | 1.63 | 3.22 | 1.4 | 2.81 | 1.52 | 3.03
25 | Nc1nn(C(=O)Nc2ccc(Cc3ccccc3)cc2)c2ccccc12 | – | – | 12.9 | 28 | 19.2 | 64.1 | 2.39 | 17.6 | 1.2 | 33.8 | 13.4 | 37.7 | 2.9 | > 100 | 1.08 | > 100 | 13.5 | 39.6 | 27.2 | > 100
26 | C#Cc1ccc(-n2c(/C=C/c3ccc4ccccc4n3)nc3ncccc3c2=O)cc1 | – | – | 0.469 | 2.03 | 0.798 | 2.35 | 0.375 | 1.13 | 0.33 | > 100 | 0.3 | 0.734 | 0.281 | 0.779 | – | – | 0.514 | 2.19 | – | –
27 | CC(=O)/C=C/c1ccc(N(C)Cc2ccc(C(C)(C)C)cc2)cc1 | 164 | 903 | 141 | 300 | 138 | 284 | 58.4 | – | – | – | 95.1 | 275 | 128 | 310 | 89.7 | 327 | 133 | 277 | 348 | 890
